Test results taken from patent US10906977B2, “Enhancing the therapeutic activity of immune checkpoint inhibitor” (Maine Medical Center Research Institute, priority 2016, dated 2021).
Each block holds one molecule with its values, some of them ahead of it.

Assays:
[1] = test system: human retinal microvascular endothelial cells (HRMVEC); experiment: Cell adhesion to immobilized collagen RGD peptides; format: cell-based; details: peptide immobilized 100 μg/ml
Procedure: (§1) RGD peptides (P-1, P-2, P-3, P-4, P-5, and P-C) were immobilized (100 μg/ml) to wells. HUVEC, HMVEC, HRMVEC, and HDF cells were suspended in adhesion buffer (RPMI containing 1 mM MgCl2, 0.2 mM MnCl2 and 0.5% BSA) and 1×10^5 cells were seeded into the wells in the presence or absence of P4C10, LM609, P1F6 or control antibodies (100 μg/ml). Cells were allowed to attach for 25 min at 37° C. Media containing non-attached cells was aspirated and attached cells were washed with PBS and stained with crystal violet. Cell adhesion was quantified by measuring the optical density of eluted dye. Adhesion assays were completed at least three times with triplicate wells.

[2] = test system: human microvascular endothelial cells (HMVEC); experiment: Cell adhesion to immobilized collagen RGD peptides; format: cell-based; details: peptide immobilized 100 μg/ml
Procedure: as §1

[3] = test system: human umbilical vein endothelial cell (HUVEC); experiment: Cell adhesion to immobilized collagen RGD peptides; format: cell-based; details: peptide immobilized 100 μg/ml; FIG. 1A
Procedure: as §1

human dermal fibroblasts = experiment: Cell adhesion to immobilized collagen RGD peptides; format: cell-based; details: peptide immobilized 100 μg/ml
Procedure: as §1

[4] = test system: chick chorioallantoic membrane (CAM); experiment: Chick CAM inflammation induced by soluble RGD collagen peptides; format: in vivo; details: FIG. 5D
Procedure: (§2) The chick chorioallantoic membrane (CAM) assays were carried out with some modifications (19). For all experiments CAMs of 10-day-old chick embryos obtained from Charles River (North Franklin, Conn.) were separated from the shell membrane. Filter discs either non-treated (inflammation assays) pretreated (angiogenesis assays) with cortisone acetate (3.0 mg/ml) containing RPMI only or FGF-2 (40 ng). CAMs were either non-treated or treated topically with Mab XL313, XL166 or a non-specific control antibody (10 μg/embryo every 24 h for three consecutive treatments). […] At the end of the incubation period the embryos were sacrificed and the CAM tissues were analyzed. Angiogenesis was quantified by counting the number of angiogenic branching blood vessels within the area of the filter disc. The angiogenic index was determined by subtracting the mean number of blood vessel branch points from untreated CAMs from each experimental condition. Eight to twelve embryos were used per condition and experiments were repeated at least three times.

[5] = test system: chick chorioallantoic membrane (CAM); experiment: Chick CAM angiogenesis induced by soluble RGD collagen peptides; format: in vivo; details: soluble peptide; FIG. 5C
Procedure: as §2

[6] = molecular target: T1, integrin αvβ3 (recombinant) (UniProt P06756 31-992; P05106 27-718); experiment: solid-phase binding assay, integrin on immobilized PGF peptide (100 ug/ml)
T1 construct: Bought recombinant integrin; also called recombinant integrin receptor αvβ3
T1 sequence (P06756 31-992 limits assumed, chain 1 of 2): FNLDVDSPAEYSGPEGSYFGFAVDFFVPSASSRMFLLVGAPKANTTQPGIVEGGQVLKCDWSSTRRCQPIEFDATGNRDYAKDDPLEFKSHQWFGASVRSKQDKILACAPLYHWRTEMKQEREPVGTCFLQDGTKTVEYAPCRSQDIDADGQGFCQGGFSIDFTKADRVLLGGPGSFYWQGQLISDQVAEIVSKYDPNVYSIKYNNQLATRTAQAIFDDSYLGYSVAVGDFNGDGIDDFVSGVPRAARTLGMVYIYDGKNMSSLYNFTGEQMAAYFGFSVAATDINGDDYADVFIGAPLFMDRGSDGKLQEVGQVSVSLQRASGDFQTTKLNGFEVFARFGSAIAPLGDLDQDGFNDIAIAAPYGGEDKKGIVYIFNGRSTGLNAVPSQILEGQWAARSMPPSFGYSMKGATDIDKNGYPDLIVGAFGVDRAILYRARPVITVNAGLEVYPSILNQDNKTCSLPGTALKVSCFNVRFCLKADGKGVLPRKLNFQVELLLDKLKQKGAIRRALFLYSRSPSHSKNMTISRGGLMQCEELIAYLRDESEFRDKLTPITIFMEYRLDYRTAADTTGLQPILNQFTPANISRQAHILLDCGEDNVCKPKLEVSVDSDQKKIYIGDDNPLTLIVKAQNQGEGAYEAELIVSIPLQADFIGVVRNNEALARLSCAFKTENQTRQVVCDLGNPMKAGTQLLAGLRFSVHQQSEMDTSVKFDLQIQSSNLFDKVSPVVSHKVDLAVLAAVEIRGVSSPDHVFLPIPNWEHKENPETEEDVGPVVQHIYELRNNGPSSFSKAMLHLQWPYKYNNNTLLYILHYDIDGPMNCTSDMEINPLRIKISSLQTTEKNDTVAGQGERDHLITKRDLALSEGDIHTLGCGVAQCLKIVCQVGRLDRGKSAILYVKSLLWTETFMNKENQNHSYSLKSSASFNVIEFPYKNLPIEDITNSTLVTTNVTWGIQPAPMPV
T1 sequence (P05106 27-718 limits assumed, chain 2 of 2): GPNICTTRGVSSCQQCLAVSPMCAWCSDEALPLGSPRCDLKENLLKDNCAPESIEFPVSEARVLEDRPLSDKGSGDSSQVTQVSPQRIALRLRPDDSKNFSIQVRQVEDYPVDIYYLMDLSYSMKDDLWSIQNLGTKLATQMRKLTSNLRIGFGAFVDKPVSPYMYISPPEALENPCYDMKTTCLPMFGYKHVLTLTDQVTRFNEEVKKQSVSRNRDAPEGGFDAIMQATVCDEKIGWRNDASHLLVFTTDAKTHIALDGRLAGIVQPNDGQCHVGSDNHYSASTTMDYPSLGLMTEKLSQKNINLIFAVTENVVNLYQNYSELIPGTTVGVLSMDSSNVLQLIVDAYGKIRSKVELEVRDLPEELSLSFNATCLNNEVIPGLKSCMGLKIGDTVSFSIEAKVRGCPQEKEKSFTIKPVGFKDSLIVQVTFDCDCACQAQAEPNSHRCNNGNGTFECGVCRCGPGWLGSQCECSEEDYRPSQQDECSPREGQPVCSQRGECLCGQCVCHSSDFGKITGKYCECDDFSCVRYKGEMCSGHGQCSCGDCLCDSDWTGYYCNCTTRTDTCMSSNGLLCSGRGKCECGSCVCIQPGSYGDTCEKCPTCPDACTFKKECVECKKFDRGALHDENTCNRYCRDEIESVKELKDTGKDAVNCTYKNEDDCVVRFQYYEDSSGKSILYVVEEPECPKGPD
Procedure: Plates were coated with 25 µg/ml of native or denatured (boiled 15 minutes) collagen. Collagen epitope peptide PGF and Cont-peptides were immobilized at 100 ug/ml. Integrins (0-2.0 µg/ml) were diluted in binding buffer containing 20 mM Tris, 15 mM NaCl, 1 mM MgCl2, 0.2 mM MnCl2, 0.5% BSA pH 7.4 as described (13). Integrins were allowed to bind for 1 hr and plates washed and incubated with anti-integrin antibodies (1:100 dilution) for 1 hr. Plates were washed and incubated with HRP-labeled secondary antibodies (1:5000 dilution). In a second assay, integrins (0.5 µg/ml) were coated in binding buffer and plates were washed, blocked as before and denatured (boiled 15 minutes) collagen was added (0-10.0 µg/ml). Denatured collagen was detected with anti-collagen antibody (1:1000). For integrin blocking ELISAs, wells were coated with denatured collagen and pre-treated (0.1 µg/ml) with anti-HU177 or control antibody. Following washing, wells were incubated with integrins (2.0 µg/ml) and binding was detected as described. Assays were carried out at least 3 times.

[7] = molecular target: T2, integrin αvβ3 on cells (HUVEC endothelial cells, M21 melanoma cells, human T-cells) (human, UniProt P06756 31-1048; P05106 27-788); experiment: HUVEC adhesion to immobilized peptides with function blocking anti-integrin antibodies
T2 construct: whole, on cells; Endogenous receptor on the cells used in adhesion and signalling assays; also called β3 integrin
T2 sequence (P06756 31-1048, chain 1 of 2): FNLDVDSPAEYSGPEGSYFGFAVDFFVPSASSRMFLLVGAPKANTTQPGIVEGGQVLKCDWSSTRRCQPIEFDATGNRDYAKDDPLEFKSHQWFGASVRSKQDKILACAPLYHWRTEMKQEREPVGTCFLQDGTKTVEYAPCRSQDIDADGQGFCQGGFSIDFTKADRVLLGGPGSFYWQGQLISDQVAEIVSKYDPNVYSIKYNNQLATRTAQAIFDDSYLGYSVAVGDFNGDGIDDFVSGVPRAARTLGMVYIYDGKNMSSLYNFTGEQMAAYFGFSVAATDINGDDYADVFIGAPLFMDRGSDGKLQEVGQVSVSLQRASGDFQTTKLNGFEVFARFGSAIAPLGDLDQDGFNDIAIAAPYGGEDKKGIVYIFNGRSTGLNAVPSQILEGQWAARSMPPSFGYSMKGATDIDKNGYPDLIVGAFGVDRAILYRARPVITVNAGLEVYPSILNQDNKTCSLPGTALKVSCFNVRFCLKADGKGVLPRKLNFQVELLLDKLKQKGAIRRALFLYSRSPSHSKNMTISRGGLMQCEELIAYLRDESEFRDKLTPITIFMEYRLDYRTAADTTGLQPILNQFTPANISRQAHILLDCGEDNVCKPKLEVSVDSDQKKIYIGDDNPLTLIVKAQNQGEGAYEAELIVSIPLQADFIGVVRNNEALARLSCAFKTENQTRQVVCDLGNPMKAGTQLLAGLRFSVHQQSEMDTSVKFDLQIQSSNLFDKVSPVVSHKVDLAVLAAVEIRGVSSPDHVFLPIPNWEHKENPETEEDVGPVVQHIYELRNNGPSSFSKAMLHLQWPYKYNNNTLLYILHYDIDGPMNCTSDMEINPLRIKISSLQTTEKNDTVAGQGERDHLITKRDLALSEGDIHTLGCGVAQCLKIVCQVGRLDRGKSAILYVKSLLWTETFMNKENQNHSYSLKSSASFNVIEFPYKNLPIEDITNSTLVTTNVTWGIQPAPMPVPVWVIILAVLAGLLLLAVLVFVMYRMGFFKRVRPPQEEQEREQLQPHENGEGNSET
T2 sequence (P05106 27-788, chain 2 of 2): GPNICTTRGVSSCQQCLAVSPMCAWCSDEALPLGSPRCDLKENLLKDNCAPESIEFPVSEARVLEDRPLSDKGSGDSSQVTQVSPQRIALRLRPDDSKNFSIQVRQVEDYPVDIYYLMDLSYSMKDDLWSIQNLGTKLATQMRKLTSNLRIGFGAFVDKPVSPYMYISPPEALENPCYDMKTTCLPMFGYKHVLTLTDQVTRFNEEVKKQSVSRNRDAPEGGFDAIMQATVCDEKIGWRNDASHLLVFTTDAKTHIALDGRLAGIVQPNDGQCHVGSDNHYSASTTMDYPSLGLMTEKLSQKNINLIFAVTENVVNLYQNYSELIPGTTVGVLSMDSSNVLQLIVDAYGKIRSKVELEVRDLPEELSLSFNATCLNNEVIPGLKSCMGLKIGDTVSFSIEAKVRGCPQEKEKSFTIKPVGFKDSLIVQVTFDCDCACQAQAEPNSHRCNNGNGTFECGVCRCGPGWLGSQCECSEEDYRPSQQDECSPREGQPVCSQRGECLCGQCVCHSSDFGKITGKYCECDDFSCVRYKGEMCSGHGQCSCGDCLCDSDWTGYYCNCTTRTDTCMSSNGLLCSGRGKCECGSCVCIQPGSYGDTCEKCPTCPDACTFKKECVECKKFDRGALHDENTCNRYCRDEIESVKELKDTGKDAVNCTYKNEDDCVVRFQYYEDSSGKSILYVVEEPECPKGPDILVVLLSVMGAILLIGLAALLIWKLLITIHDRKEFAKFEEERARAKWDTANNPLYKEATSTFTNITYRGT
Procedure: as §1, with “µg/ml)” for “μg/ml)”, “µg/ml).” for “μg/ml).”
Example 8: Collagen Peptide P-2 Binds and Activates αvβ3 and Stimulates P38MAPK Activation in a Src Dependent Manner It is well established that multiple integrins recognize RGD amino acid motifs within ECM proteins. However, the ability of an integrin to bind distinct RGD epitopes depends in part on its orientation within the parent molecule and the C-terminal amino acid sequences flanking the RGD motif (25-27). Potential cell surface receptors that mediate interactions with the RGDKGE (SEQ ID NO: 1) containing collagen P-2 peptide were identified. The ability of endothelial cells to bind the RGD collagen peptides P-1 and P-2 in the presence or absence of function blocking anti-integrin antibodies was examined.

Molecule: CQGPSGAPGEC [P-C, control peptide lacking the RGD tri-peptide motif, reference compound]
HRMVEC adhesion to immobilized peptide [1]: failed to support interactions | HMVEC adhesion to immobilized peptide [2]: failed to support interactions | HUVEC adhesion to immobilized peptide [3]: failed to support adhesion | human dermal fibroblast adhesion to immobilized peptide (human dermal fibroblasts): failed to support interactions | CAM inflammation following stimulation with peptide [4]: Minimal evidence of tissue inflammation | induction of CAM angiogenesis as compared to no treatment [5]: not

binding result [6]: no binding
B1: Collagen PGF-peptide (CPGFPGFC), synthetic HU177 epitope (peptide)
peptide: CPGFPGFC

binding result [7]: binds
B2: Synthetic collagen RGD containing peptide P-1 (CKGDRGDAPGC) (peptide)
peptide: CKGDRGDAPGC
